Reference: patent US8211849B2, “Stable antimicrobial compositions including spore, bacteria, fungi and/or enzyme” (priority 2005, dated 2012)
Read-outs that look alike come from different tables or passages of the source.

How the values were obtained:
lipase = test: Enzyme stability testing (Lipolase activity); type: biochemical; settings: Table 13; composition including the named antimicrobial agent
Description: The pH of Formula 3 was lowered to 7. Formulas 4 and 5 maintained enzyme stability at 40 C for at least 30 days. Formula 3 maintained enzyme stability at 40 C for 30 days, but dropped thereafter. Enzyme stability testing was performed according to the manufacturers specifications (e.g., Novozymes LUNA #2000-10340-01 “Manual Procedure for Determination of Lipolase Activity in Enzyme Preparations and Detergents”. )

bacteria = test: Non-food contact sanitizing test, summary (organism not named); type: cell-based; settings: Table 13; composition including the named antimicrobial agent
Description: The composition produced greater than 3 log10 reduction of bacteria within a 5 minute contact time.
A summary of sanitizing efficacy in a non-food contact sanitizing test is shown below in Table 11 below. All testing was performed in 500 ppm synthetic hard water with a five minute exposure time. Microbiological testing was performed according to known methods, certain of which included EPA efficacy data requirements from DIS/TSS-10.
(§1) A summary of stability and sanitizing efficacy for these compositions including an amine antimicrobial agent is shown below in Table 13. This table also includes, for comparison, results for compositions including other types of antimicrobial agents.

[1] = Physical stability of compositions; type: physicochemical
Source text: as §1

[2] = Table 13, composition including the named antimicrobial agent

Compound	Enzyme Stability (lipase)	Antimicrobial Activity (bacteria)	Physical Stability [1, 2]	Physical Stability [1]
Dodecyl/tetradecyloxypropyl-1,3-diaminopropane [DA 1618]	yes	4.8 log reduction	yes	
O=C([O-])CNCO.[Na+] [Integra 44, Hydroxymethylglycinate]		none	yes	
CCCCCCCCCC[N+](C)(C)CCCCCCCCCC.[Cl-] [Bardac 2250, didecyl dimethyl ammonium chloride]		3 log reduction		
Cc1cc(O)cc(C)c1Cl [PCMX, Chloroxylenol, reference compound]			yes	
polyhexymethylene biguanide [Vantocil]			yes	
CCCCCCCCCCCCN(CCCN)CCCN [Lonzabac 12.30, bis (3-aminopropyl)dodecylamine]	yes	4.5 log reduction	yes	
cocodiaminopropane [Duomeen CD]	yes	2.5 log reduction	yes	
isotridecyloxypropyl-1,3-diaminopropane [DA-17]	yes	4 log reduction		yes
Oc1cccc(O)c1 [Resorcinol, 1,3-benzenediol, reference compound]			yes	
linear alkyloxypropyl amine [PA-19]	yes	4 log reduction	yes	
